This experiment concerns the target purified PDE1A enzyme (Homo sapiens, UniProt P54750). Kind of experiment: In vitro PDE1A assay, dose response (Biomol Cyclic Nucleotide Phosphodiesterase Assay Kit, colorimetric). Conditions: 100 μM cAMP, 45 min at 37° C., 8 points from 20 μM, duplicate. It is filed as biochemical. An excerpt:
For the dose response and further screening, we used the Cyclic Nucleotide Phosphodiesterase Assay Kit from Biomol, a colorimetric, non-radioactive assay. The basis for the assay is the cleavage of cAMP by PDE1A. The 5′AMP is further cleaved into the nucleoside and phosphate by the enzyme 5′-nucleotidase (catnr KI-307). The phosphate released due to enzymatic cleavage is quantified using BIOMOL GREEN™ reagent (catnr AK-111) in a modified Malachite Green assay 1,2. A PDE1A inhibitor will result in a decrease of the signal.
For the enzymatic reaction a mix of 25 μL with purified PDE1A enzyme, 100 μM cAMP, 5′Nucleotidase and the compound is made in a clear 384-plate. The reaction buffer is Tris 20 mM pH 7.4, 4 μg/ml calmodulin, 3 mM MgCl2, 1.5 mM CaCl2, 0.2 mg/mL BSA and 0.001% Brij-35. After an incubation of 45 minutes at 37° C., the reaction is stopped by the addition of 50 μL BIOMOL GREEN™ reagent. After 30 minutes incubation at room temperature, the readout is performed on the Envision (absorption at 615 nm).
All compounds are tested in duplicate starting from 20 μM followed by a ⅓ serial dilution, 8 points (20 μM-6.67 μM-2.22 μM-740 nM-247 nM-82 nM-27 nM-9 nM) in a final concentration of 1% DMSO. As the positive dose response control compound Vardenafil is used. For the calculation of z′ and PIN values 10 μM Vardenafil is used as positive control (100% inhibition) and 1% DMSO as negative control (0% inhibition).
The following compounds have been or can be prepared according to the synthetic methods described above. For the purpose of Table 2 below, activity of each compound, which can be determined using the PDE1A assay method described in above, is expressed as follows: […]

As for `CCCc1nn(C)c2c(=O)[nH]c(NCc3cc(-c4ccccc4)nn3C)nc12` [Example 66, 1-methyl-5-((1-methyl-3-phenyl-1H-pyrazol-5-yl)methylamino)-3-propyl-1H-pyrazolo[4,3-d]pyrimidin-7(6H)-one], the IC50 (commonly the concentration that gives 50% inhibition) is less than 100 nM.

`CCCc1nn(C)c2c(=O)[nH]c(NCc3cccc(-c4ccn(C)n4)c3)nc12` [Example 67] had an IC50 of less than 100 nM. For the compound `CCCc1nn(C)c2c(=O)[nH]c(NCc3ccc4c(ccn4C)c3)nc12` [Example 68, 1-methyl-5-((1-methyl-1H-indol-5-yl)methylamino)-3-propyl-1H-pyrazolo[4,3-d]pyrimidin-7(6H)-one], the IC50 was 101 to 500 nM.

Regarding `CCCc1nn(C)c2c(=O)[nH]c(NCc3ccc4ccn(C)c4c3)nc12` [Example 69, 1-methyl-5-((1-methyl-1H-indol-6-yl)methylamino)-3-propyl-1H-pyrazolo[4,3-d]pyrimidin-7(6H)-one], the IC50 lay within 101 to 500 nM. `CN(Cc1ccc(F)cc1)c1nc2c(C3CCCC3)nn(C)c2c(=O)[nH]1` [Example 70, 3-cyclopentyl-5-((4-fluorobenzyl)(methyl)amino)-1-methyl-1H-pyrazolo[4,3-d]pyrimidin-7(6H)-one] had an IC50 of less than 100 nM. The compound `CN(Cc1ccc(Cl)cc1)c1nc2c(C3CCCC3)nn(C)c2c(=O)[nH]1` [Example 71, 5-((4-chlorobenzyl)(methyl)amino)-3-cyclopentyl-1-methyl-1H-pyrazolo[4,3-d]pyrimidin-7(6H)-one] displayed an IC50 of less than 100 nM.

Compound `CCCc1nn(C)c2c(=O)[nH]c(NCc3sc(-c4ccccc4)nc3C)nc12` [Example 72, 1-methyl-5-((4-methyl-2-phenylthiazol-5-yl)methylamino)-3-propyl-1H-pyrazolo[4,3-d]pyrimidin-7(6H)-one] had an IC50 of less than 100 nM. With `CCCc1nn(C)c2c(=O)[nH]c(NCc3cccc(-n4cncn4)c3)nc12` [Example 73], the IC50 is 101 to 500 nM. `CCCc1nn(C)c2c(=O)[nH]c(N(Cc3cccc(N4CCOCC4)c3)CC(C)C)nc12` [Example 74, 5-(isobutyl(3-morpholinobenzyl)amino)-1-methyl-3-propyl-1H-pyrazolo[4,3-d]pyrimidin-7(6H)-one] returned an IC50 of less than 100 nM.

With `CCCc1nn(C)c2c(=O)[nH]c(N(CCC)CCc3ccc(Cl)cc3)nc12` [Example 75, 5-((4-chlorophenethyl)(propyl)amino)-1-methyl-3-propyl-1H-pyrazolo[4,3-d]pyrimidin-7(6H)-one], the IC50 was in the range of 101 to 500 nM.

For the compound `Cn1nc(C2CCCC2)c2nc(NCc3ccc(Cl)c(Cl)c3)[nH]c(=O)c21` [Example 76, 3-cyclopentyl-5-(3,4-dichlorobenzylamino)-1-methyl-1H-pyrazolo[4,3-d]pyrimidin-7(6H)-one], the IC50 is 101 to 500 nM. For the compound `CN(Cc1ccc(Cl)c(Cl)c1)c1nc2c(C3CCCC3)nn(C)c2c(=O)[nH]1` [Example 77, 3-cyclopentyl-5-((3,4-dichlorobenzyl)(methyl)amino)-1-methyl-1H-pyrazolo[4,3-d]pyrimidin-7(6H)-one], the IC50 was less than 100 nM. With `CCCN(CCC)c1nc2c(C3CCCC3)nn(C)c2c(=O)[nH]1` [Example 78, 3-cyclopentyl-5-(dipropylamino)-1-methyl-1H-pyrazolo[4,3-d]pyrimidin-7(6H)-one], the IC50 is less than 100 nM. As to `CCCc1nn(C)c2c(=O)[nH]c(NCCc3ccc(Cl)cc3)nc12` [Example 79, 5-(4-chlorophenethylamino)-1-methyl-3-propyl-1H-pyrazolo[4,3-d]pyrimidin-7(6H)-one], the concentration for half-maximal inhibition (IC50) is 101 to 500 nM. Regarding `Cc1nc(-c2ccccc2)sc1CN(C)c1nc2c(C(C)(C)C)nn(C)c2c(=O)[nH]1` [Example 80, 3-tert-butyl-1-methyl-5-(methyl((4-methyl-2-phenylthiazol-5-yl)methyl)amino)-1H-pyrazolo[4,3-d]pyrimidin-7(6H)-one], the IC50 is less than 100 nM. In the case of `CN(Cc1cc(-c2ccccc2)nn1C)c1nc2c(C(C)(C)C)nn(C)c2c(=O)[nH]1` [Example 81, 3-tert-butyl-1-methyl-5-(methyl((1-methyl-3-phenyl-1H-pyrazol-5-yl)methyl)amino)-1H-pyrazolo[4,3-d]pyrimidin-7(6H)-one] it was less than 100 nM; in that of `CCCc1nn(C)c2c(=O)[nH]c(NCCc3ccc(OCC)c(OCC)c3)nc12` [Example 82, 5-(3,4-diethoxyphenethylamino)-1-methyl-3-propyl-1H-pyrazolo[4,3-d]pyrimidin-7(6H)-one], greater than 500 nM. As to `CCCc1nn(C)c2c(=O)[nH]c(NCc3nnc4ccccn34)nc12` [Example 83, 5-([1,2,4]triazolo[4,3-a]pyridin-3-ylmethylamino)-1-methyl-3-propyl-1H-pyrazolo[4,3-d]pyrimidin-7(6H)-one], the IC50 was 101 to 500 nM. Turning to `CC1CCCCN1c1nc2c(C3CCCC3)nn(C)c2c(=O)[nH]1` (stereo not drawn) [Example 84, 3-cyclopentyl-1-methyl-5-(2-methylpiperidin-1-yl)-1H-pyrazolo[4,3-d]pyrimidin-7(6H)-one], the IC50 was greater than 500 nM. In the case of `Cn1nc(C2CCCC2)c2nc(N3CCCCC3)[nH]c(=O)c21` [Example 85, 3-cyclopentyl-1-methyl-5-(piperidin-1-yl)-1H-pyrazolo[4,3-d]pyrimidin-7(6H)-one], the IC50 is greater than 500 nM.

The compound `Cn1nc(C2CCCC2)c2nc(N3CCCC3c3ccccc3)[nH]c(=O)c21` (stereo not drawn) [Example 86, 3-cyclopentyl-1-methyl-5-(2-phenylpyrrolidin-1-yl)-1H-pyrazolo[4,3-d]pyrimidin-7(6H)-one] registered an IC50 of less than 100 nM. In turn, `CCCc1nn(C)c2c(=O)[nH]c(NCCc3ccc(F)cc3)nc12` [Example 87, 5-(4-fluorophenethylamino)-1-methyl-3-propyl-1H-pyrazolo[4,3-d]pyrimidin-7(6H)-one] displayed an IC50 greater than 500 nM.

With `CCCc1nn(C)c2c(=O)[nH]c(NCCc3cnn(-c4ccccc4)c3)nc12` [Example 88, 1-methyl-5-(2-(1-phenyl-1H-pyrazol-4-yl)ethylamino)-3-propyl-1H-pyrazolo[4,3-d]pyrimidin-7(6H)-one], the IC50 is greater than 500 nM. `CCCN(CCC)c1nc2c(C(C)(C)C)nn(C)c2c(=O)[nH]1` [Example 89, 3-tert-butyl-5-(dipropylamino)-1-methyl-1H-pyrazolo[4,3-d]pyrimidin-7(6H)-one]: the IC50 was less than 100 nM.

`Cc1nc(-c2cccc(CN(C)c3nc4c(C(C)(C)C)nn(C)c4c(=O)[nH]3)c2)cs1` [Example 90, 3-tert-butyl-1-methyl-5-(methyl(3-(2-methylthiazol-4-yl)benzyl)amino)-1H-pyrazolo[4,3-d]pyrimidin-7(6H)-one] showed an IC50 of less than 100 nM. Take `CCCc1nn(C)c2c(=O)[nH]c(NCc3c(C)nn(Cc4ccccc4)c3C)nc12` [Example 91, 5-((1-benzyl-3,5-dimethyl-1H-pyrazol-4-yl)methylamino)-1-methyl-3-propyl-1H-pyrazolo[4,3-d]pyrimidin-7(6H)-one]: the half-inhibitory concentration (IC50) lay in the range of 101 to 500 nM. Take `CN1CCN(c2cccc(CNc3nc4c(C(C)(C)C)nn(C)c4c(=O)[nH]3)c2)CC1` [Example 92, 3-tert-butyl-1-methyl-5-(3-(4-methylpiperazin-1-yl)benzylamino)-1H-pyrazolo[4,3-d]pyrimidin-7(6H)-one]: the IC50 was less than 100 nM. With `CC(C)CN(Cc1cccc(-n2cccn2)c1)c1nc2c(C(C)(C)C)nn(C)c2c(=O)[nH]1` [Example 93], the IC50 is less than 100 nM. In the case of `CCCc1nn(C)c2c(=O)[nH]c(N(Cc3cccc(-n4cccn4)c3)CC(C)C)nc12` [Example 94] it was less than 100 nM; in that of `CC(C)CN(Cc1cccc(-n2cncn2)c1)c1nc2c(C(C)(C)C)nn(C)c2c(=O)[nH]1` [Example 95], less than 100 nM. Turning to `CCCc1nn(C)c2c(=O)[nH]c(N(Cc3cccc(-n4cncn4)c3)CC(C)C)nc12` [Example 96], the IC50 is less than 100 nM.

In turn, `CC(C)CN(Cc1ccc(F)cc1)c1nc2c(C(C)(C)C)nn(C)c2c(=O)[nH]1` [Example 97, 3-tert-butyl-5-((4-fluorobenzyl)(isobutyl)amino)-1-methyl-1H-pyrazolo[4,3-d]pyrimidin-7(6H)-one] registered an IC50 of less than 100 nM. As to `CCCc1nn(C)c2c(=O)[nH]c(N(Cc3ccc(F)cc3)CC(C)C)nc12` [Example 98, 5-((4-fluorobenzyl)(isobutyl)amino)-1-methyl-3-propyl-1H-pyrazolo[4,3-d]pyrimidin-7(6H)-one], the IC50 was less than 100 nM.

Turning to `CC(C)CN(C)c1nc2c(C(C)(C)C)nn(C)c2c(=O)[nH]1` [Example 99, 3-tert-butyl-5-(isobutyl(methyl)amino)-1-methyl-1H-pyrazolo[4,3-d]pyrimidin-7(6H)-one], the IC50 was less than 100 nM.

Take `CC(C)CN(Cc1cccc(-n2cccc2)c1)c1nc2c(C(C)(C)C)nn(C)c2c(=O)[nH]1` [Example 100]: the IC50 was less than 100 nM. On to `CCCc1nn(C)c2c(=O)[nH]c(N(Cc3cccc(-n4cccc4)c3)CC(C)C)nc12` [Example 101], for which the IC50 is less than 100 nM.

(Values after patent publication US20080242661A1, “Novel compounds useful for the treatment of degenerative & inflammatory diseases” (priority 2006, published 2008).)
